Measured values: a melting point compilation (Tetko et al.; mined from patent text by program, amines drawn as free bases though some values may be those of a salt)

melting point [°C]	SMILES
146 to 148	CCN(C(=O)N1CCN(c2cc(Cl)cc(Cl)c2)CC1)c1nc2ccccc2nc1OC
235	O=C1CN2C(=O)C(c3ccccc3)c3cccc(c32)N1 (centres undefined)
> 300	Nc1ccc(-c2nc(Cl)c3c(=O)[nH][nH]c(=O)c3c2N)cc1
227 to 229	NS(=O)(=O)c1ccc(-c2cnn(-c3ccc(F)cc3)c(=O)c2Oc2ccc(F)cc2)cc1
305 to 308	Cc1nc2[nH]c3ccccc3c2c(N)c1C(N)=O
212 to 213	CS(=O)(=O)c1ccc(-c2cnn(CC(F)(F)F)c(=O)c2-c2ccc(S(C)(=O)=O)cc2)cc1
114 to 116	O=c1ncc(Br)cn1CC=CCl
186 to 188	CCCCNN1C2=C(C=C(C)C1C(=O)OCC)CCC(=O)N2 (centres undefined)
161 to 163	COc1ccc(-c2ccc(N3CCCN(c4ccc(-c5ccc(OC)cc5OC)cn4)CC3)nc2)c(OC)c1
127 to 128	CC(=O)OCCCNC(=O)C1=C(C(=O)Nc2ccc(Cl)cc2F)CCCC1
99 to 102	CCCCNC(=O)Oc1ccc(N=C=S)cc1
113	COC(=O)C(NC(=O)c1ccccc1)C(C)=O (centres undefined)
217	NC(N)=Nc1nc(-c2ccc(C(=O)NC(=O)c3cccnc3)o2)cs1
162 to 165	CCCCNS(=O)(=O)CC(O)C(O)C(CC1CCCCC1)NC(=O)c1ccc(O)c(O)c1 (centres undefined)
105 to 106	CC(C(=O)O)c1ccc(Oc2ccc(F)cc2F)cc1 (centres undefined)
202 to 203	N#Cc1ccc(N(Cc2ccc(OS(N)(=O)=O)cc2)n2cnnc2)cc1-c1cc2ccccc2o1
95 to 96	CC1=C(CC(NC(=O)c2ccc(Cl)cc2)NC(=NC#N)Nc2cccnc2)C(C)(C)CCC1 (centres undefined)
192 to 195	CCc1ccc2c(c1)C1CN(CCCC(=O)c3ccc(F)cc3)CCC1N2 (centres undefined)
286	N#Cc1c(N2CCN(C(=O)c3cccs3)CC2)c2cccnc2n(Cc2ccccc2F)c1=O
184 to 185	CCOC(=O)c1cc2c(O)nncc2nc1NC(C)CC (centres undefined)
107 to 111	CCOC(=O)C1=C(C)NC(c2cnc(C)s2)=NC1c1ccc(F)cc1Cl (centres undefined)
79 to 80	CCOC(=O)C(O)(CC(C)(C)c1ccc(OC)cc1)C(F)(F)F (centres undefined)
99 to 100	CCOC(=O)c1ccc(CCCC2NC(=O)CS2)cc1 (centres undefined)
148 to 150	O=C1CCC(N2Cc3c(OCc4ccc(Cn5cnc(C(F)(F)F)c5)cc4)cccc3C2=O)C(=O)N1 (centres undefined)

melting point [°C]	SMILES
220 to 222	O=C(Nc1n[nH]c(=S)s1)N[C@@H](Cc1ccccc1)C(=O)N1CCN(c2ccccn2)CC1
143 to 147	CCc1nc2c(cnn2CC)c(NC2CCOCC2)c1CNC(=O)c1cccc(C(=O)NCc2ccc(OC)c(-c3cccc(CN4CCCNCC4)c3)c2)c1
218 to 220	Cn1ncc(C(=O)N2CCOCC2)c1C(=O)Nc1ccn2nc(-c3cccnc3)nc2c1
167 to 169	CC(C)(C)OC(=O)N1C(C(=O)O)CSC1c1cccnc1 (centres undefined)
165 to 167	O=C(CC1CCCC1)NC[C@H]1CN(c2ccc3c(c2)CCCc2cnn(C(=O)CC4CCCC4)c2-3)C(=O)O1
123	O=C(O)c1cccc([N+](=O)[O-])c1O
204	COc1ccc2c(CC(=O)O)c(C(=O)c3cc(C)ccn3)[nH]c2c1
225 to 227	Nc1c(-c2cc(Cl)ccc2O)c2ccc(C(F)(F)F)cc2[nH]c1=O
48 to 50	CCCCCCNC(=O)NCCCCl
146 to 148	CNC(=O)N(N(CCCl)S(C)(=O)=O)S(C)(=O)=O
135 to 137	O=C(NCCC1CCCCCCCCCCC1)C1=C(O)COC1=O
122	CCOc1cc(O)c(C(=O)C=Cc2ccc(OC)cc2)c(OC)c1
162	COc1cc2c(cc1OC)[C@H]1CCCC[C@H]1N=C2c1ccc(C(C)=NNC(=O)c2cccnc2)cc1
212 to 214	CC(=O)Nc1nc2c(Oc3cc(-c4ccc(C(F)(F)F)cc4NC(=O)C4CCCCN4CC4CC4)ncn3)cccc2s1 (centres undefined)
95 to 98	OC1(c2ccccc2)CCN(CCCC2COc3ccccc3O2)CC1 (centres undefined)
208	N#Cc1c(N)nc2ccccc2c1NCc1cccs1
103	C=Cc1cnc(-c2ccccn2)nc1
137 to 139	COc1cc(N(C(C)=O)C2CCCCC2)c2ccccc2c1OC(C)=O
105 to 107	CN(CCCNc1ncc(Cc2cccc(Cl)c2)c(=O)[nH]1)c1ccccn1
147 to 149	Nc1nc(=O)n([C@@H]2CC[C@H](CO)O2)cc1F
96 to 100	O=[N+]([O-])C=C1SCCN1Cc1cccnc1
124 to 125	Cc1ccc(-n2cc(-c3cccn4nc(Nc5ccc(C6CCN(C(=O)OC(C)(C)C)CC6)cc5)nc34)cn2)cc1
> 275	Cc1ccc(C(=O)Nc2nc(-c3ccccc3)c(-c3nc4ccccc4c(=O)n3-c3ccccc3C)s2)cc1
153	Nc1ccc(NC2CCCCCC2)c([N+](=O)[O-])c1

melting point [°C]	SMILES
206	Cc1nn(-c2ccccn2)c2nc3ccc(C(F)(F)F)cc3c(Cl)c12
98 to 100	CC(=O)Nc1cccc2c1SCC=C2
248 to 251	CN1CCN(CC(=O)NC2(c3ccc(Cl)cc3)C(=O)Nc3cc(Cl)cc(Cl)c32)CC1 (centres undefined)
55 to 57	Cc1ccc2sc(C(C)(C)C)nc2c1
99 to 100	CC=C(c1ccc(OC)cc1)c1ccc(OC)cc1
124 to 126	O=C1N(Cc2ccc(-c3ccccc3C(F)(F)F)o2)c2ccccc2C12COc1cc3c(cc12)OCOC3 (centres undefined)
148	N=C1SCCN1c1ccc(N)cc1
225	Cc1cc(C(=O)O)c2[nH]c3c(c2c1)CCCC3
119 to 120	CN(Cc1cc2c3c(c1)c(=O)c(C(=O)NCc1ccc(Cl)cc1)cn3CC(=O)N2C)C[C@@H](O)c1ccco1
168 to 170	Clc1ccccc1-c1nc(-c2ccc3c(c2)OCO3)c(-c2ccc3c(c2)OCO3)[nH]1
99 to 100	COC(=O)C(=O)c1ccc(OCC(=O)c2cccc3ccccc23)cc1
110 to 112	O=C1c2ccccc2C(=O)N1OC1CCCCCC1
81 to 85	CC(C)(C)OC(=O)NCC(=O)Nc1cccc(NC(=O)C(=O)N2CCC(Cc3ccccc3)CC2)c1
122	CCCN1N=C(c2ccc(F)cc2)c2cc(Cl)ccc2CS1(=O)=O
174 to 175	O=C(O)CCC(O)c1ccc(-c2ccccc2F)cc1 (centres undefined)
121 to 124	CCOC(=O)C(O)c1cc(Cl)cc2cccnc12 (centres undefined)
279 to 281	Cn1c(=O)c2cnc(-c3ccccc3)nc2n(C)c1=O
182 to 183	CCOC(=O)c1nc2sc(C(C)C)cc2c(=O)[nH]1
235 to 236	CNS(=O)(=O)c1cn(C)c2cc(Cl)c(F)cc2c1=O
200 to 201	C[C@]1(COC(=O)N(c2ccc(Cl)cc2)c2ccc(Cl)cc2)Cn2cc([N+](=O)[O-])nc2O1
168 to 170	CC(C)c1cccc(C(C)C)c1NS(=O)(=O)CC(=O)N(Cc1ccccc1)C(C)C
140	COc1ccc(C)cc1NC(=O)Nc1ccc(N2CCNCC2)cc1
123 to 137	CC(Cc1c[nH]c2ccccc12)(NC(=O)OC1C2CC3CC(C2)CC1C3)C(=O)NC(CC(=O)O)Cc1ccccc1 (centres undefined)
196 to 199	CCCCc1nc2c(N)nc3ccccc3c2n1CCN

melting point [°C]	SMILES
178 to 179	COc1cc2c(cc1OC)-c1cc(=Nc3c(C)cc(C)cc3C)n(C(C)C)c(=O)n1CC2
245 to 246	CNC(=O)c1sc(NC(C)=O)nc1CCc1ccc(NC(NC(=O)OC(C)(C)C)NC(=O)OC(C)(C)C)cc1
78	Cc1c(C(F)(F)C(F)(F)F)oc2c(C=O)cccc12
111 to 112	CCOC(=O)c1cn(C)c2sc(CCl)cc2c1=O
166 to 168	CCOC(Cc1ccc(OCc2nc(C3CC3)oc2C)c2ccccc12)C(=O)O (centres undefined)
72 to 75	COC(=O)Cc1cccc(NC(=O)NC2c3cc(C#N)ccc3OC(C)(C)C2O)c1 (centres undefined)
295 to 297	N#CC(C(=O)Nc1ccccc1Cl)C(=O)c1nn(-c2ccccc2)c2c1Cc1ccccc1-2 (centres undefined)
173	Cc1nn(C)c(Cl)c1S(N)(=O)=O
143 to 144	CCOc1nn(Cc2ccc(OCc3nc(-c4ccccc4)oc3C)nc2)cc1CCC(=O)O
299	O=C(Oc1ccccc1)N1CCCc2nc3ccccc3c(O)c2C1
255 to 257	CC(C)(C)c1cccc(Br)c1Oc1ccc(O)nn1
234 to 236	COc1ccc(COC(=O)C2=C3[C@H]4CCCC[C@H]4[C@@H]3S[C@@H]3[C@H](NC(=O)Cc4ccccc4)C(=O)N23)cc1
99 to 101	CC(C)(C)OC(=O)NC1(CCC(=O)O)CC=CO1 (centres undefined)
88 to 90	CCC(=CC=C(C#N)C#N)NCCO
79 to 81	CCSc1cc(C#N)c(Oc2ccc(Cl)c(Cl)c2)cn1
209 to 211	Cn1cnc2nc(Oc3ccccc3)nn2c1=S
124 to 126	CCOP(=O)(CNCc1ccnc(-c2cc(OC)c(O)c(OC)c2)c1)OCC
209 to 210	Cc1c(NC(=O)CC(C)(C)C)c(C)c2c(c1-c1cccc([N+](=O)[O-])c1)OCC2c1ccc(C(C)C)cc1 (centres undefined)
212 to 213	CCOC(=O)c1cn(CC)c2nc(N3CCC(NCC(C)=O)C3)c(F)cc2c1=O (centres undefined)
173 to 175	Cc1cc2oc(=O)c3c(c2cc1C)CCNC3
92 to 93	CC(=O)OC1C(N2CCCC2=O)c2sccc2OC1(C)C (centres undefined)
145 to 147	Cc1ccc(-c2cccc3c2OC(COS(=O)(=O)c2ccc(C)cc2)C3)cc1 (centres undefined)
220 to 222	CC(=O)Nc1cccc(S(=O)(=O)c2cc(O)c(O)cc2C)c1

SMILES	melting point [°C]
CC1=NC(C)(C)SC1=NOC(=O)N(C)SN(C)C(=O)F	77 to 79
COc1ccc2c(c1)[C@H]1CN(C)CC[C@@H]1CC2=O (relative stereo)	> 250
CC(C)(O)P(=O)(O)CCCN	243 to 244
CCC1(c2ccccc2)C(=O)N(CCO)C(=O)N(CCO)C1=O	107 to 109
